Results on 11 compounds are retold here after patent US4996227A, “3-(heteroarylalkyene)- and 3-(arylalkylene)-2,4(3H,5H)-heterocyclic diones as cancer chemotherapy drugs” (priority 1989, dated 1991).

Each structure is given as a SMILES string.

Common to all, as to format: cell-based
For test [1], the system named is K562 cells (human chronic granulocytic leukemia). Briefly: K562 human leukemia cell suspension culture, cell concentration. To be noted: 1 ug/ml. As for the experimental part: In this example, 1 mcg/ml of 3[[5-methyl-2-thienyl]methylene]2, 4 (3H, 5H) furandione was compared to 1 mcg/ml of 3[[3-methyl-2-thienyl]methylene]2, 4 (3H, 5H) furandione.
A conventionally available cell line (K562) derived from human chronic granulocytic leukemia was employed in an in vitro procedure. The leukemia cell line was cultured in a suspension of RPMI 1640 plus 10% fetal calf serum. All initial cell concentrations for the cultures were 0.65 times 10^5 cells/ml. Four separate suspension cultures were employed with the first suspension culture having no additions. The second suspension culture included 100 microliters of the solvent DMSO per 10 ml of culture (control). The third culture contained 1 ug/ml of 3[[5-methyl-2 thienyl]methylene]-2, 4 (3H, 5H) furandione and the fourth culture contained 1 ug/ml of 3[[3-methyl-2-thienyl]methylene]-2, 4 (3H, 5H) furandione. The cell concentration of each of the four cultures was determined. After three days and again after five days.

Test [2] relates to human tumor H5315 BREAST. Nature of the test: Human Tumor Stem Cell Assay, colony growth after one hour exposure. The conditions noted are these: LO: furandione 0.2 mcg/ml; standard drugs 10% of peak plasma concentration; 1 h. An excerpt: (§1) The in vitro Human Tumor Stem Cell Assay procedure described as follows has several advantages for testing the effectiveness of chemotherapy drugs such as the 3-(heteroarylalkylene)-2,4(3H,5H)-furandiones. The first advantage is that fresh tumor cells from a variety of tumor types were used rather than a small number of cell lines which have undergone severe selection pressures as they are passed in vitro. The second advantage is that only the anchorage-independent tumor cells will form colonies in soft agar so that any non-malignant cells present in the sample will not form colonies. Perhaps the most important advantage, however, is the emphasis on cells which have the ability to form colonies. These cells, which are generally called stem cells, usually comprise only a small percentage of all tumor cells. They are thought to be the most important cells for growth and distant spread of a tumor. In particular, these cells have the potential to leave the primary tumor and form new tumors at distant sites (called metastases). It is the effectiveness against these very important stem cells that the Human Tumor Stem Cell Assay measures.
(§2) One of the 3-(heteroarylalkylene)-2,4(3H,5H)-furandione compounds, 3-[(5-methyl-2-thienyl) methylene]-2,4(3H,5H)-furandione was evaluated against a series of 10 human tumors in the in vitro Human Tumor Cell Assay, along with conventional and standard chemotherapy agents.
(§3) In the procedure, a single cell suspension was prepared from tumors excised from patients during therapeutic or diagnostic surgical procedures. The human tumor cells were exposed to known anticancer drugs or to [(5-methyl-2-thienyl)methylene]-2,4 (3H, 5H)-furandione at a low (0.2 mcg/ml) or a high (1.0 mcg/ml) concentration for one hour. […] The suspension was washed with tissue culture medium to remove the drug.
(§4) The suspension was then cultured in a double soft agar suspension. Control cells which had been treated identically, except for exposure to the drugs, were also cultured. After one to two weeks, both the tumor cells and the control cells formed colonies in the soft agar which were enumerated under a microscope. The number of colonies grown from the drug-treated cells was compared to the number of colonies grown from the control cells, and the percentage growth after exposure to the drug was calculated.
(§5) The results are illustrated in Table 1, wherein the various numbers indicate the percentage of growth. For example, a small number like 6 means that the number of colonies is only 6% of the number without addition of the compound. On the other hand, a large number like 120 means that the number of colonies is 20% greater with the compound than without.
(§6) Of the nine tumors for which the higher concentration (1.0 mcg/ml) of the furandione was used, five gave inhibition of colony growth corresponding to borderline sensitive (30-50% growth) and four gave inhibition corresponding to sensitivity (0-30% growth). Clinical drugs are normally tested at 10% of their peak plasma concentration. For the standard chemotherapy drugs shown in Table 1, the low concentration (LO) corresponds to this 10% level, and the high concentration (HI) is at 50% of the peak plasma concentration. Of the same nine tumors, only two would have been rated as sensitive or borderline sensitive to any of the other clinical drugs tested.

Test [3] deals with human tumor H5318 OVARY. The test is described as above. The conditions noted are these: 1 h.
Source text: as §1, §2, §3, §4, §5, §6

Test [4] relates to human tumor H5319 BREAST. The test is described as above. The conditions noted are these: 1 h.
Source text: as §1, §2, §3, §4, §5, §6

Test [5] has as its system human tumor H5322 STOMACH. The test is described as above. The conditions noted are these: 1 h.
Source text: as §1, §2, §3, §4, §5, §6

The subject of test [6] is human tumor H5325 SARCOMA. Described as above. The conditions noted are these: 1 h.
Source text: as §1, §2, §3, §4, §5, §6

Test [7] deals with human tumor H5330 THYMUS. Described as above. The conditions noted are these: 1 h.
Source text: as §1, §2, §3, §4, §5, §6

In test [8] the test system is human tumor H5331 OVARY. The description is as above. To be noted: 1 h.
Source text: as §1, §2, §3, §4, §5, §6

The subject of test [9] is human tumor H5349 BREAST. The description is as above. The conditions noted are these: 1 h.
Source text: as §1, §2, §3, §4, §5, §6

Test [10] concerns human tumor H5340 **. The test is described as above. The conditions noted are these: 1 h.
Source text: as §1, §2, §3, §4, §5, §6

Test [11] deals with human tumor H5337 COLON. The description is as above. The conditions noted are these: 1 h.
Source text: as §1, §2, §3, §4, §5, §6

[12] abbreviates: HI: furandione 1.0 mcg/ml, standard drugs 50% of peak plasma concentration.
Setting [13] is: LO: furandione 0.2 mcg/ml, standard drugs 10% of peak plasma concentration.

As to `Cc1ccsc1C=C1C(=O)COC1=O` [3 methyl, 3[[3-methyl-2-thienyl]methylene]-2, 4 (3H, 5H) furandione], the “effect on leukemia culture” value in test [1] is “also shows a decrease in the leukemia cell concentration culture, but the decrease is not as great as with the other compound”. For the same compound, the entries for the “Cell Conc.” value in [1] (3 Days) and in test [1] (5 Days) were 50000 mL⁻¹ and 150000 mL⁻¹, respectively. Also, in test [1] (after five days), the “cell concentration vs 5-methyl analog” value is listed as “slightly higher cell concentration than the 5-methyl analog”.
As for `COc1cccc2c1C(=O)c1c(O)c3c(c(O)c1C2=O)C[C@@](O)(C(=O)CO)C[C@@H]3O[C@H]1C[C@H](N)[C@H](O)[C@H](C)O1` [ADR, ADRIAMYCIN], the “percentage of growth (colonies vs control)” value (from here on “percentage of growth”) in test [2] turned out to be 75%; in [3] (setting [12]), 60%; in [3] (setting [13]), 76%; in [4] (setting [12]), 100%; in test [5] (setting [12]), 65%; in [5] (setting [13]), 55%. The “percentage of growth” value was determined as 11% in test [6] (setting [12]); 22% in test [6] (setting [13]); 98% in test [7] (setting [12]); 105% in test [8] (setting [12]); 82% in test [9] (setting [12]).
`CCOC(=O)NC1=C(N2CC2)C(=O)C(NC(=O)OCC)=C(N2CC2)C1=O` [AZO, AZIRIDIMYLBENYOQUINONE]: the “percentage of growth” value in test [10] (setting [12]) is reported as 107%.
In the case of `O=NN(CCCl)C(=O)NCCCl` [BCNU, BISCHLORETHYLNITROSOUREA], the “percentage of growth” value in [2] worked out at 108%; in test [3] (setting [12]) it was 93%; in [4] (setting [12]), 122%; in test [7] (setting [12]) it was 74%; in [8] (setting [12]), 111%; in test [11] (setting [12]), 88%.
As to `N.N.[Cl][Pt][Cl]` [CPDD, CISPLATIN], the “percentage of growth” value in test [3] (setting [12]) came out at 38%; in test [3] (setting [13]), 109%; in test [5] (setting [12]) it was 56%; in test [5] (setting [13]) it was 63%; in test [6] (setting [13]) it was 62%; in [7] (setting [12]) it was 75%. The “percentage of growth” value is recorded as 69% in test [8] (setting [12]); 87% in test [8] (setting [13]); 41% in test [11] (setting [12]); 98% in test [11] (setting [13]); 125% in test [10] (setting [12]); 54% in test [9] (setting [12]). Moreover, the “percentage of growth” value in [9] (setting [13]) stood at 48%.
On to `O=c1[nH]cc(F)c(=O)[nH]1` [Compound 5FU, 5FLUORACIL], for which the “percentage of growth” value in [4] (setting [12]) stood at 111%; in test [5] (setting [12]) it was 79%; in [6] (setting [12]) it was 83%; in test [8] (setting [12]), 51%; in test [8] (setting [13]) it was 94%; in test [11] (setting [13]), 62%. Also, in [9] (setting [12]), the “percentage of growth” value was found to be 117%.
Consider `Nc1nc(=S)c2[nH]cnc2[nH]1` [Compound 6TG, 6THOQUANINE], for which the “percentage of growth” value in [5] (setting [12]) is given as 122%; in [6] (setting [12]) it was 69%; in test [10] (setting [12]), 50%; in test [10] (setting [13]), 75%.
Consider `N[C@@H](Cc1ccc(N(CCCl)CCCl)cc1)C(=O)O` [MPL, MELPHALAN], for which the “percentage of growth” value in test [4] (setting [12]) was 85%; in test [5] (setting [12]), 61%; in [5] (setting [13]), 54%; in [6] (setting [12]) it was 12%; in [7] (setting [12]), 92%; in test [7] (setting [13]) it was 31%. In addition, the “percentage of growth” value was 76% in test [8] (setting [12]); 58% in [11] (setting [12]); 76% in [11] (setting [13]); 65% in [9] (setting [12]); 63% in test [9] (setting [13]).
For `CO[C@@]12[C@H](COC(N)=O)C3=C(C(=O)C(C)=C(N)C3=O)N1C[C@@H]1N[C@@H]12` [MTC, MITOMYCIN C], the “percentage of growth” value amounted to 59% in [2]; 90% in test [3] (setting [12]); 72% in [4] (setting [12]); 69% in [5] (setting [12]); 90% in test [7] (setting [12]); 102% in test [8] (setting [12]).
For the compound `CC[C@]1(O)C[C@@H]2CN(CCc3c([nH]c4ccccc34)[C@@](C(=O)OC)(c3cc4c(cc3OC)N(C)[C@H]3[C@@](O)(C(=O)OC)[C@H](OC(C)=O)[C@]5(CC)C=CCN6CC[C@]43[C@@H]65)C2)C1` [VBL, VINBLASTINE], the “percentage of growth” value in test [2] is recorded as 50%; in test [3] (setting [12]), 60%; in [3] (setting [13]), 39%; in [4] (setting [12]), 6%; in test [4] (setting [13]) it was 5%; in test [5] (setting [12]) it was 35%. The “percentage of growth” value in [5] (setting [13]) was 40%; in test [6] (setting [12]), 8%; in test [6] (setting [13]), 9%; in test [8] (setting [12]), 45%; in [8] (setting [13]) it was 115%; in test [11] (setting [12]), 67%. The “percentage of growth” value in [11] (setting [13]) was 60%; in test [10] (setting [12]), 44%; in test [10] (setting [13]), 79%; in test [9] (setting [12]) it was 65%; in test [9] (setting [13]) it was 70%.
Take `CC[C@]1(O)C[C@H]2CN(CCc3c([nH]c4ccccc34)[C@@](C(=O)OC)(c3cc4c(cc3OC)N(C=O)[C@H]3[C@@](O)(C(=O)OC)[C@H](OC(C)=O)[C@]5(CC)C=CCN6CC[C@]43[C@@H]65)C2)C1` [VCR, VINCRISTINE]: in test [10] (setting [12]), the “percentage of growth” value came to 113%.
